The results in this text go back to PubChem BioAssay (NCI).

“And” between values parts separate entries of the source, which are not always exact repeats. Equal values may be shown once.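 Tested at 5 concentrations; 48 h exposure; 96-well plates; endpoints linearly interpolated, else capped at highest concentration. GI50 is the concentration that inhibits growth by half. Definition used: TGI = concentration required for complete inhibition of growth.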 A value given as a limit tells only on which side of the number the result lay.

Some test systems named below: 786-0 renal; BT-549 breast; EKVX NSCLC; HL-60(TB) leukemia; HOP-62 NSCLC; KM12 colon; NCI-H460 lung; NCI-H522 lung; SK-MEL-5 melanoma; SR leukemia.
Experiment in all cases: NCI tumour cell line growth inhibition, 48 h

For `Cn1c2ccccc2c2nnc(N/N=C/c3ccccn3)nc21`, the GI50 in the assay with 786-0 renal was 0.256 µM; with BT-549 breast, 0.452 µM; in the assay on EKVX NSCLC, 0.293 µM; with HL-60(TB) leukemia, 0.222 µM; with HOP-62 NSCLC it was 0.337 µM; with KM12 colon, 0.535 µM. The GI50 was 0.346 µM in the assay with NCI-H460 lung, 0.574 µM with NCI-H522 lung, 0.24 µM with SK-MEL-5 melanoma and 0.23 µM with SR leukemia. The TGI in the assay with 786-0 renal is 0.758 µM; with BT-549 breast it was greater than 38.9 µM; in the assay on EKVX NSCLC it was greater than 32 µM; in the assay on HL-60(TB) leukemia, 3.85 µM; with HOP-62 NSCLC it was 6.02 µM; in the assay with KM12 colon it was greater than 38.3 µM. Besides, the TGI is 5.69 µM in the assay with NCI-H460 lung, 33 µM with NCI-H522 lung, 0.806 µM in the assay on SK-MEL-5 melanoma and greater than 100 µM in the assay with SR leukemia.
For `CCN(CC)CCCC(C)Nc1cnc(C(=O)Nc2cc(F)cc3cccnc23)cn1` (centres undefined), the GI50 in the assay on 786-0 renal is 8.17 µM and 1.33 µM; with BT-549 breast, 11.1 µM and 1.59 µM; in the assay with EKVX NSCLC, 10.2 µM and 1.22 µM; with HOP-62 NSCLC it was 10.8 µM and 1.89 µM; in the assay with KM12 colon, 6.09 µM and 1.78 µM; with NCI-H460 lung, 4.64 µM and 2.06 µM. The GI50 in the assay with NCI-H522 lung is 5.51 µM and 1.26 µM; in the assay on SK-MEL-5 melanoma, 1.78 µM and 1.58 µM; in the assay with SR leukemia, 2.66 µM and 1.6 µM. Besides, the TGI in the assay on 786-0 renal was 22 µM and 2.7 µM; in the assay on BT-549 breast it was 24 µM and 3 µM; with EKVX NSCLC, 22.1 µM and 2.51 µM; with HL-60(TB) leukemia, 25.6 µM and 31.3 µM; in the assay with HOP-62 NSCLC, 25.3 µM and 3.62 µM; in the assay on KM12 colon it was 19.5 µM and 3.34 µM. In addition, the TGI in the assay on NCI-H460 lung was 16.6 µM and 4.22 µM; in the assay with NCI-H522 lung, 19 µM and 2.9 µM; with SK-MEL-5 melanoma it was 3.37 µM and 2.95 µM.
Turning to `N#CC(C#N)=CN1CCN(C(=O)c2ccccc2)C1=S`, the GI50 in the assay on 786-0 renal was 38.9 µM; with BT-549 breast it was 22.8 µM; in the assay with EKVX NSCLC it was 3.48 µM; in the assay on HL-60(TB) leukemia it was 33.5 µM; with HOP-62 NSCLC, greater than 100 µM; in the assay with KM12 colon, 32.3 µM. Also, the GI50 with NCI-H460 lung was 20 µM; with NCI-H522 lung it was 15.9 µM; in the assay on SK-MEL-5 melanoma, 23.3 µM; with SR leukemia, 18.8 µM. Moreover, the TGI with 786-0 renal was greater than 100 µM; in the assay on BT-549 breast, 53 µM; in the assay on EKVX NSCLC, 11.4 µM; in the assay on HL-60(TB) leukemia it was 79.4 µM; with HOP-62 NSCLC, greater than 100 µM; in the assay with KM12 colon it was 86.7 µM. Moreover, the TGI in the assay with NCI-H460 lung came to 66.5 µM; in the assay on NCI-H522 lung, 43.7 µM; in the assay with SK-MEL-5 melanoma it was 50.1 µM; in the assay with SR leukemia, 79.9 µM.
For the compound `COC[C@H]1OC(=O)c2coc3c2[C@@]1(C)C1=C(C3=O)[C@@H]2CCC(=O)[C@@]2(C)C[C@H]1OC(C)=O`, the TGI in the assay with 786-0 renal is greater than 100 µM; with BT-549 breast it was 12.7 µM; in the assay with EKVX NSCLC it was greater than 100 µM; in the assay with HL-60(TB) leukemia it was 53.7 µM; with HOP-62 NSCLC, greater than 100 µM; with KM12 colon, greater than 100 µM. The TGI was greater than 100 µM with NCI-H460 lung, greater than 71.9 µM in the assay on NCI-H522 lung, 61 µM in the assay on SK-MEL-5 melanoma and 31.3 µM in the assay on SR leukemia. Moreover, the GI50 with BT-549 breast was 0.485 µM; with HL-60(TB) leukemia, 2.98 µM.
`CN1CCN(Cc2ccc(NC(=O)c3[nH]ncc3Nc3ncnc4c3CCC4)cc2)CC1`: the GI50 in the assay with 786-0 renal is 2.24 µM; in the assay on BT-549 breast, 2.14 µM; with EKVX NSCLC, 2.38 µM; in the assay on HL-60(TB) leukemia, 0.728 µM; in the assay on HOP-62 NSCLC, 2.69 µM; in the assay with KM12 colon, 0.767 µM. Besides, the GI50 with NCI-H460 lung was 1.87 µM; in the assay with NCI-H522 lung, 1.54 µM; in the assay on SK-MEL-5 melanoma, 0.874 µM; with SR leukemia, 0.438 µM. Besides, the TGI in the assay on 786-0 renal was 11 µM; in the assay with BT-549 breast, 6.97 µM; in the assay on EKVX NSCLC it was 6.6 µM; in the assay on HL-60(TB) leukemia, 3.29 µM; in the assay with HOP-62 NSCLC, 11.5 µM; with KM12 colon it was 11.1 µM. Further, the TGI in the assay on NCI-H460 lung came out at 10.6 µM; in the assay with NCI-H522 lung, 8.79 µM; with SK-MEL-5 melanoma, 13.3 µM; in the assay with SR leukemia, 3.05 µM.
Consider `CCOc1cc2ncc(C#N)c(Nc3ccc(F)c(Cl)c3)c2cc1NC(=O)/C=C/CN(C)C`, for which the GI50 was 0.339 µM in the assay on 786-0 renal; 0.665 µM in the assay with BT-549 breast; 0.0187 µM in the assay with EKVX NSCLC; 0.57 µM in the assay with HL-60(TB) leukemia; 1.27 µM with HOP-62 NSCLC; 1.22 µM with KM12 colon. Further, the GI50 was 0.655 µM in the assay on NCI-H460 lung, 0.0231 µM in the assay with NCI-H522 lung, 2.93 µM with SK-MEL-5 melanoma and 0.414 µM in the assay with SR leukemia. For the same compound, the TGI is 2 µM in the assay with 786-0 renal; greater than 7.78 µM in the assay with BT-549 breast; greater than 6.51 µM in the assay with EKVX NSCLC; greater than 5.51 µM in the assay with HL-60(TB) leukemia; greater than 10 µM in the assay on HOP-62 NSCLC; 3.01 µM with KM12 colon. Also, the TGI in the assay on NCI-H460 lung is 4.26 µM; with NCI-H522 lung, 0.732 µM; with SK-MEL-5 melanoma, greater than 10 µM; in the assay on SR leukemia it was 2.4 µM.
As for `CCc1oc2ccccc2c1C(=O)c1cc(Br)c(O)c(Br)c1`, the TGI in the assay with 786-0 renal worked out at 55.6 µM; in the assay on BT-549 breast it was 71.4 µM; with EKVX NSCLC, 95.2 µM; in the assay on HL-60(TB) leukemia, 33.3 µM; with HOP-62 NSCLC it was 85.7 µM; with KM12 colon, 55.1 µM. Besides, the TGI with NCI-H460 lung came out at 34.2 µM; with NCI-H522 lung it was 43.1 µM; with SK-MEL-5 melanoma, 32.2 µM; in the assay on SR leukemia, 55.4 µM.
For `COc1ccc(C(=O)c2cc(OC)c(OC)c(OC)c2)cc1O`, the GI50 with 786-0 renal is 0.914 µM; in the assay on BT-549 breast it was 0.0337 µM; with EKVX NSCLC, 0.791 µM; with HL-60(TB) leukemia, 0.0103 µM; with HOP-62 NSCLC, 0.0931 µM; in the assay on KM12 colon, less than 0.0155 µM. Also, the GI50 in the assay with NCI-H460 lung is 0.0373 µM; in the assay with NCI-H522 lung, less than 0.0164 µM; with SK-MEL-5 melanoma, 0.0439 µM; in the assay on SR leukemia, less than 0.01 µM. Also, the TGI is greater than 100 µM with 786-0 renal; greater than 100 µM in the assay with BT-549 breast; greater than 100 µM in the assay on EKVX NSCLC; 0.0557 µM with HL-60(TB) leukemia; greater than 100 µM in the assay with HOP-62 NSCLC; greater than 100 µM with KM12 colon. In addition, the figures for the TGI with NCI-H460 lung, with SK-MEL-5 melanoma and in the assay on SR leukemia were greater than 100 µM, 0.315 µM and greater than 100 µM, respectively.
